In PubChem BioAssay (NCI):
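Interpolation was linear, between the two tested concentrations surrounding the appropriate level; five concentrations were tested over 48 hours in 96-well plates. At the TGI there is no net growth.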

Legend:
Test in all cases: growth of human tumour cells (NCI), 48 h
SW-620 colon = test system: SW-620 colon
SNB-75 CNS = test system: SNB-75 CNS
HOP-62 NSCLC = test system: HOP-62 NSCLC
UO-31 renal = test system: UO-31 renal
SF-295 CNS = test system: SF-295 CNS
HS 578T breast = test system: HS 578T breast
786-0 renal = test system: 786-0 renal
SF-539 CNS = test system: SF-539 CNS
EKVX NSCLC = test system: EKVX NSCLC
RXF 393 renal = test system: RXF 393 renal
SR leukemia = test system: SR leukemia
A498 renal = test system: A498 renal
HOP-92 NSCLC = test system: HOP-92 NSCLC
MDA-MB-435 = test system: MDA-MB-435
MOLT-4 leukemia = test system: MOLT-4 leukemia
SK-MEL-5 melanoma = test system: SK-MEL-5 melanoma
M14 melanoma = test system: M14 melanoma
MCF7 breast = test system: MCF7 breast
NCI-H23 lung = test system: NCI-H23 lung
HT29 colon = test system: HT29 colon
KM12 colon = test system: KM12 colon
IGROV1 ovarian = test system: IGROV1 ovarian
COLO 205 colon = test system: COLO 205 colon
NCI/ADR-RES ovarian = test system: NCI/ADR-RES ovarian
SN12C renal = test system: SN12C renal
LOX IMVI melanoma = test system: LOX IMVI melanoma
HL-60(TB) leukemia = test system: HL-60(TB) leukemia
CAKI-1 renal = test system: CAKI-1 renal
U251 CNS = test system: U251 CNS
RPMI-8226 leukemia = test system: RPMI-8226 leukemia
SNB-19 CNS = test system: SNB-19 CNS
TK-10 renal = test system: TK-10 renal
OVCAR-4 ovarian = test system: OVCAR-4 ovarian
DU-145 prostate = test system: DU-145 prostate
ACHN renal = test system: ACHN renal
BT-549 breast = test system: BT-549 breast
PC-3 prostate = test system: PC-3 prostate
NCI-H226 lung = test system: NCI-H226 lung
HCT-116 colon = test system: HCT-116 colon
OVCAR-5 ovarian = test system: OVCAR-5 ovarian
NCI-H522 lung = test system: NCI-H522 lung
SK-MEL-2 melanoma = test system: SK-MEL-2 melanoma
UACC-257 melanoma = test system: UACC-257 melanoma
NCI-H460 lung = test system: NCI-H460 lung
MDA-MB-231 breast = test system: MDA-MB-231 breast
HCT-15 colon = test system: HCT-15 colon
MALME-3M melanoma = test system: MALME-3M melanoma
SK-MEL-28 melanoma = test system: SK-MEL-28 melanoma
UACC-62 melanoma = test system: UACC-62 melanoma
K-562 leukemia = test system: K-562 leukemia
T-47D breast = test system: T-47D breast
CCRF-CEM leukemia = test system: CCRF-CEM leukemia
SF-268 CNS = test system: SF-268 CNS
A549 NSCLC = test system: A549 NSCLC
OVCAR-3 ovarian = test system: OVCAR-3 ovarian
OVCAR-8 ovarian = test system: OVCAR-8 ovarian
MDA-N = test system: MDA-N
SK-OV-3 ovarian = test system: SK-OV-3 ovarian

CC1=CP(=O)(c2c(C(C)C)cc(C(C)C)cc2C(C)C)CCC1Cl (stereo unspecified)
TGI (SW-620 colon): 69.9 µM | TGI (SNB-75 CNS): 28.6 µM | TGI (HOP-62 NSCLC): 33.9 µM | TGI (UO-31 renal): 29.2 µM | TGI (SF-295 CNS): 27.4 µM | TGI (HS 578T breast): > 100 µM | TGI (786-0 renal): 36.7 µM | TGI (SF-539 CNS): 32.9 µM | TGI (EKVX NSCLC): 32.6 µM | TGI (RXF 393 renal): 31.5 µM | TGI (SR leukemia): 23 µM | TGI (A498 renal): 30.4 µM | TGI (HOP-92 NSCLC): 31 µM | TGI (MDA-MB-435): 37.6 µM | TGI (MOLT-4 leukemia): 49.6 µM | TGI (SK-MEL-5 melanoma): 31.7 µM | TGI (M14 melanoma): 29.8 µM | TGI (MCF7 breast): 35.5 µM | TGI (NCI-H23 lung): 39.4 µM | TGI (HT29 colon): 41.8 µM | TGI (KM12 colon): 40.2 µM | TGI (IGROV1 ovarian): 40.9 µM | TGI (COLO 205 colon): 29.8 µM | TGI (NCI/ADR-RES ovarian): 40.2 µM | TGI (SN12C renal): 34.7 µM | TGI (LOX IMVI melanoma): 47.2 µM | TGI (HL-60(TB) leukemia): 42.8 µM | TGI (CAKI-1 renal): 39.4 µM | TGI (U251 CNS): 32.3 µM | TGI (RPMI-8226 leukemia): 40.9 µM | TGI (SNB-19 CNS): 30.3 µM | TGI (TK-10 renal): 30.7 µM | TGI (OVCAR-4 ovarian): 48.5 µM | TGI (DU-145 prostate): 37.1 µM | TGI (ACHN renal): 31.5 µM | TGI (BT-549 breast): 33.4 µM | TGI (PC-3 prostate): 28 µM | TGI (NCI-H226 lung): 35.1 µM | TGI (HCT-116 colon): 38.4 µM | TGI (OVCAR-5 ovarian): 32.5 µM | TGI (NCI-H522 lung): 33.6 µM | TGI (SK-MEL-2 melanoma): 31.4 µM | TGI (UACC-257 melanoma): 24.9 µM | TGI (NCI-H460 lung): 35.3 µM | TGI (MDA-MB-231 breast): 30.7 µM | TGI (HCT-15 colon): 39.8 µM | TGI (MALME-3M melanoma): 30.4 µM | TGI (SK-MEL-28 melanoma): 35.1 µM | TGI (UACC-62 melanoma): 26.1 µM | TGI (K-562 leukemia): 35.6 µM | TGI (T-47D breast): 31.9 µM | TGI (CCRF-CEM leukemia): 65.4 µM | TGI (SF-268 CNS): 35.4 µM | TGI (A549 NSCLC): 32.7 µM | TGI (OVCAR-3 ovarian): 23.4 µM | TGI (OVCAR-8 ovarian): 52.9 µM | TGI (MDA-N): 46.7 µM | TGI (SK-OV-3 ovarian): 36.3 µM

COC(=O)Nc1nc2ccc(S(=O)(=O)N3CCOCC3)cc2[nH]1
TGI (SW-620 colon): > 100 µM | TGI (SNB-75 CNS): > 100 µM | TGI (HOP-62 NSCLC): > 100 µM | TGI (UO-31 renal): > 100 µM | TGI (SF-295 CNS): > 100 µM | TGI (HS 578T breast): > 100 µM | TGI (786-0 renal): > 100 µM | TGI (SF-539 CNS): 31 µM | TGI (EKVX NSCLC): > 100 µM | TGI (RXF 393 renal): > 100 µM | TGI (SR leukemia): > 100 µM | TGI (A498 renal): > 100 µM | TGI (HOP-92 NSCLC): > 100 µM | TGI (MDA-MB-435): 89.3 µM | TGI (MOLT-4 leukemia): > 100 µM | TGI (SK-MEL-5 melanoma): > 100 µM | TGI (M14 melanoma): > 100 µM | TGI (MCF7 breast): > 100 µM | TGI (NCI-H23 lung): > 100 µM | TGI (HT29 colon): > 100 µM | TGI (KM12 colon): > 100 µM | TGI (IGROV1 ovarian): > 100 µM | TGI (COLO 205 colon): > 100 µM | TGI (NCI/ADR-RES ovarian): > 100 µM | TGI (SN12C renal): > 100 µM | TGI (LOX IMVI melanoma): > 100 µM | TGI (HL-60(TB) leukemia): > 100 µM | TGI (CAKI-1 renal): > 100 µM | TGI (U251 CNS): > 100 µM | TGI (RPMI-8226 leukemia): > 100 µM | TGI (SNB-19 CNS): > 100 µM | TGI (TK-10 renal): > 100 µM | TGI (OVCAR-4 ovarian): > 100 µM | TGI (DU-145 prostate): > 100 µM | TGI (ACHN renal): > 100 µM | TGI (BT-549 breast): > 100 µM | TGI (PC-3 prostate): > 100 µM | TGI (NCI-H226 lung): > 100 µM | TGI (HCT-116 colon): > 100 µM | TGI (OVCAR-5 ovarian): > 100 µM | TGI (NCI-H522 lung): > 100 µM | TGI (SK-MEL-2 melanoma): > 100 µM | TGI (UACC-257 melanoma): > 100 µM | TGI (NCI-H460 lung): > 100 µM | TGI (MDA-MB-231 breast): > 100 µM | TGI (HCT-15 colon): > 100 µM | TGI (MALME-3M melanoma): > 100 µM | TGI (SK-MEL-28 melanoma): > 100 µM | TGI (UACC-62 melanoma): > 100 µM | TGI (K-562 leukemia): > 100 µM | TGI (T-47D breast): > 100 µM | TGI (CCRF-CEM leukemia): > 100 µM | TGI (SF-268 CNS): > 100 µM | TGI (A549 NSCLC): > 100 µM | TGI (OVCAR-3 ovarian): > 100 µM | TGI (OVCAR-8 ovarian): > 100 µM | TGI (MDA-N): > 100 µM | TGI (SK-OV-3 ovarian): > 100 µM
